Experimental data: ChEMBL document CHEMBL4507305, “Data for DCP probe TP-024” (2021)

What was measured:
[1] = molecular target: Tyrosine-protein kinase Tec (Homo sapiens) (UniProt P42680); conditions: Compound concentration 1000.0 nM
[2] = system: Fibroblast growth factor receptor 3 (Homo sapiens), P22607 [G697C]; conditions: Compound concentration 1000.0 nM
[3] = molecular target: Receptor tyrosine-protein kinase erbB-3 (Homo sapiens) (UniProt P21860); conditions: Compound concentration 1000.0 nM
Receptor tyrosine-protein kinase erbB-3 (Homo sapiens), sequence (P21860 whole entry): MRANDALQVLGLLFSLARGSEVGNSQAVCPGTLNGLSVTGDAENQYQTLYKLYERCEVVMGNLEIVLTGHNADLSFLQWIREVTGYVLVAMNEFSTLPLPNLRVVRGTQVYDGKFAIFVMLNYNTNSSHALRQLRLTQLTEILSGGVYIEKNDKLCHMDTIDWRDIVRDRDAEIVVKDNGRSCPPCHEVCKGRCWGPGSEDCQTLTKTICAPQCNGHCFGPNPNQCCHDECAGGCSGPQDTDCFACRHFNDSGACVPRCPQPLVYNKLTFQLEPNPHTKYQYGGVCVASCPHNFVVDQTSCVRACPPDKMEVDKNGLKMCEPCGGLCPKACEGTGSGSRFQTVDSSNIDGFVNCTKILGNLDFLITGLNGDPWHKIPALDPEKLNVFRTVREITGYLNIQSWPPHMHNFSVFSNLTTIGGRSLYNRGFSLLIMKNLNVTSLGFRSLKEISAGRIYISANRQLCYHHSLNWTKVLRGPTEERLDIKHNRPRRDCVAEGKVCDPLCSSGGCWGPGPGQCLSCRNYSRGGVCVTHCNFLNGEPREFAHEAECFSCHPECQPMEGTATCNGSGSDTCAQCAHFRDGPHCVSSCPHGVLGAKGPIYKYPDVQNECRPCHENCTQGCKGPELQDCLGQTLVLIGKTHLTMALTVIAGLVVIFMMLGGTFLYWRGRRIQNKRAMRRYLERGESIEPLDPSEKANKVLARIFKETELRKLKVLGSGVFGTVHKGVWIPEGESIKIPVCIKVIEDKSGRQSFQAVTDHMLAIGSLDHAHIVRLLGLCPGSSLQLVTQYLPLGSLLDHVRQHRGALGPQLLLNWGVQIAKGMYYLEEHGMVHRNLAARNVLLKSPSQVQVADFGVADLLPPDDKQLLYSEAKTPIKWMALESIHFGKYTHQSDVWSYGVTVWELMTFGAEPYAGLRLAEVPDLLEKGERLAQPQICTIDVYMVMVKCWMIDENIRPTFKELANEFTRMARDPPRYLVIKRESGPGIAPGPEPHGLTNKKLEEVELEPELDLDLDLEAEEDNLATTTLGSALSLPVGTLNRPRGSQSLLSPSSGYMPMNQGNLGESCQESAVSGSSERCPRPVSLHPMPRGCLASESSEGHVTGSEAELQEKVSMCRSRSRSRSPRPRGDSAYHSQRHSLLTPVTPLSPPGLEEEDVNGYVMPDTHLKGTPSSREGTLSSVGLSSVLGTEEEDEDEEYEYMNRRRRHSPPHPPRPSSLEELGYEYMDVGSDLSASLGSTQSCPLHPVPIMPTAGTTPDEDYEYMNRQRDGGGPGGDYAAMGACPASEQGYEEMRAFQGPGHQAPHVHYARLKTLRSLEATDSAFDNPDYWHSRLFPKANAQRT

[4] = system: Tyrosine-protein kinase ABL1 (Homo sapiens), P00519 [E255K]; conditions: Compound concentration 1000.0 nM
[5] = molecular target: Serine/threonine-protein kinase 32B (Homo sapiens) (UniProt Q9NY57); conditions: Compound concentration 1000.0 nM
Serine/threonine-protein kinase 32B (Homo sapiens), sequence (Q9NY57 whole entry): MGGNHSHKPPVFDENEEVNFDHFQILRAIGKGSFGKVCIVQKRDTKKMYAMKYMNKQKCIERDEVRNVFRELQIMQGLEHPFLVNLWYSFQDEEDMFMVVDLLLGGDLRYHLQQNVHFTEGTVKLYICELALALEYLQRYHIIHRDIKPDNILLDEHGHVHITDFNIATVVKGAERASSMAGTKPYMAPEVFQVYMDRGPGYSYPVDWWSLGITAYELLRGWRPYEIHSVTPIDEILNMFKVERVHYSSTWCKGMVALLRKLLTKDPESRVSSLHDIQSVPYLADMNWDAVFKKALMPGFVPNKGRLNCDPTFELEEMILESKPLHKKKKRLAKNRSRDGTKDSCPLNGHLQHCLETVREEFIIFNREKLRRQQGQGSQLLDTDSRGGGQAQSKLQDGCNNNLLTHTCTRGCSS

[6] = molecular target: Serine/threonine-protein kinase OSR1 (Homo sapiens) (UniProt O95747); conditions: Compound concentration 1000.0 nM
Serine/threonine-protein kinase OSR1 (Homo sapiens), sequence (O95747 2-527 limits assumed): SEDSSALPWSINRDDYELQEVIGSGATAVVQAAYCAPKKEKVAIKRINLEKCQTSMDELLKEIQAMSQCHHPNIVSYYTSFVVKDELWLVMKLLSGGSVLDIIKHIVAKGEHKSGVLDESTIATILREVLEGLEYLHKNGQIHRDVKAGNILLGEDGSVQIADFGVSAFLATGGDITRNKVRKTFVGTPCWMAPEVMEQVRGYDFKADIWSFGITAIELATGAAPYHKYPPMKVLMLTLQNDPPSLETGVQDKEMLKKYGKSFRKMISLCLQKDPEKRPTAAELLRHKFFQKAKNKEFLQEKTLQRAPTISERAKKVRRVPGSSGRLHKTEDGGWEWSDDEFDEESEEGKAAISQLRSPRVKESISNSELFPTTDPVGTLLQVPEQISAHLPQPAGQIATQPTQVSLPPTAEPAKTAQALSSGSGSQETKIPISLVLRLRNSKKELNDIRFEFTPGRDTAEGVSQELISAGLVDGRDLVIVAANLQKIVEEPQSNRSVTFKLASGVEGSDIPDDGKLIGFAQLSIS

[7] = molecular target: Dual specificity protein kinase TTK (Homo sapiens) (UniProt P33981); conditions: Compound concentration 1000.0 nM
[8] = molecular target: Homeodomain-interacting protein kinase 3 (Homo sapiens) (UniProt Q9H422); conditions: Compound concentration 1000.0 nM
[9] = molecular target: Phosphatidylinositol 4-kinase beta (Homo sapiens) (UniProt Q9UBF8); conditions: Compound concentration 1000.0 nM
[10] = molecular target: Tyrosine-protein kinase JAK3 (Homo sapiens) (UniProt P52333); conditions: Compound concentration 1000.0 nM
[11] = molecular target: 5'-AMP-activated protein kinase catalytic subunit alpha-1 (Homo sapiens) (UniProt Q13131); conditions: Compound concentration 1000.0 nM
5'-AMP-activated protein kinase catalytic subunit alpha-1 (Homo sapiens), sequence (Q13131 whole entry, looked up): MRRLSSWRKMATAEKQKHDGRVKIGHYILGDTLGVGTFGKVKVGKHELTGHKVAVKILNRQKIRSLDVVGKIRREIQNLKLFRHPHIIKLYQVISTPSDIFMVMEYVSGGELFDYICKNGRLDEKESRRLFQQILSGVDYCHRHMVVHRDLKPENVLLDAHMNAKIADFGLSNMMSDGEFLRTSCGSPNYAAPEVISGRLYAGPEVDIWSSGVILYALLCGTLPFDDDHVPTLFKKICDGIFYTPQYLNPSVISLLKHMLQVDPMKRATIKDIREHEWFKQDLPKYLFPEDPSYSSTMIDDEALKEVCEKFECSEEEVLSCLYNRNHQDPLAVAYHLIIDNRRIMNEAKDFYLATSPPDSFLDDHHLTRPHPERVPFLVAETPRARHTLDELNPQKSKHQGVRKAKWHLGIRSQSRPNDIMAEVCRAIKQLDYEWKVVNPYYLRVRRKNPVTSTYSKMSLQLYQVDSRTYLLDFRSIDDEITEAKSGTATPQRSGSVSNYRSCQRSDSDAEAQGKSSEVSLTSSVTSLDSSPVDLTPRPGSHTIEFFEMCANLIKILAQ

[12] = molecular target: Proto-oncogene tyrosine-protein kinase receptor Ret (Homo sapiens) (UniProt P07949); conditions: Compound concentration 1000.0 nM
[13] = molecular target: Activin receptor type-1 (Homo sapiens) (UniProt Q04771); conditions: Compound concentration 1000.0 nM
[14] = molecular target: Beta-3 adrenergic receptor (Homo sapiens) (UniProt P13945); conditions: Compound concentration 10.0 uM
[15] = molecular target: Calcium/calmodulin-dependent protein kinase type II subunit gamma (Homo sapiens) (UniProt Q13555); conditions: Compound concentration 1000.0 nM
[16] = molecular target: Ephrin type-B receptor 2 (Homo sapiens) (UniProt P29323); conditions: Compound concentration 1000.0 nM
[17] = molecular target: Serine/threonine-protein kinase PAK 2 (Homo sapiens) (UniProt Q13177); conditions: Compound concentration 1000.0 nM
[18] = molecular target: Insulin receptor-related protein (Homo sapiens) (UniProt P14616); conditions: Compound concentration 1000.0 nM
[19] = molecular target: STE20/SPS1-related proline-alanine-rich protein kinase (Homo sapiens) (UniProt Q9UEW8); conditions: Compound concentration 1000.0 nM
[20] = molecular target: Serine/threonine-protein kinase 32A (Homo sapiens) (UniProt Q8WU08); conditions: Compound concentration 1000.0 nM
[21] = molecular target: Mitogen-activated protein kinase kinase kinase kinase 1 (Homo sapiens) (UniProt Q92918); conditions: Compound concentration 1000.0 nM
Mitogen-activated protein kinase kinase kinase kinase 1 (Homo sapiens), sequence (Q92918 whole entry, looked up): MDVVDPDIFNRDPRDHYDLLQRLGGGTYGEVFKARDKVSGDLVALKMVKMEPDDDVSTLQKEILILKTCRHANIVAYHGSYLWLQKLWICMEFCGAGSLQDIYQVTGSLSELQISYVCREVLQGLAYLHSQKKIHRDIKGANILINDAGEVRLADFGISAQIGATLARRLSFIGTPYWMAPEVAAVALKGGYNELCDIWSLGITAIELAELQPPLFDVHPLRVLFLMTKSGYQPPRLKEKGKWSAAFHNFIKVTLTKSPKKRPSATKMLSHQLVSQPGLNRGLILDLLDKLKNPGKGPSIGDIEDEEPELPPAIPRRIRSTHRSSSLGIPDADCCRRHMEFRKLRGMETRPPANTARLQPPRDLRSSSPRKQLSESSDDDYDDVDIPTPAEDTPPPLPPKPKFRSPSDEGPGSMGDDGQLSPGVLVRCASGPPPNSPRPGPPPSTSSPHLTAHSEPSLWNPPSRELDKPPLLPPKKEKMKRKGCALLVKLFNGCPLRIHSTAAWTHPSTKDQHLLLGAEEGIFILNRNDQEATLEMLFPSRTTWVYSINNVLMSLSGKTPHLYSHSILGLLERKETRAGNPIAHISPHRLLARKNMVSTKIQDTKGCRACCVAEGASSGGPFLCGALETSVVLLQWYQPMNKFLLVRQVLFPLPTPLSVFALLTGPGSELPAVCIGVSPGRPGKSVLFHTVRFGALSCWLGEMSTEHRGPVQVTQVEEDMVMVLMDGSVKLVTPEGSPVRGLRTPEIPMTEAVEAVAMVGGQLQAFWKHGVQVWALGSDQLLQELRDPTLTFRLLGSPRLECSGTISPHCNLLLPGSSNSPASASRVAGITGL

[22] = molecular target: Serine/threonine-protein kinase D3 (Homo sapiens) (UniProt O94806); conditions: Compound concentration 1000.0 nM
[23] = molecular target: Serine/threonine-protein kinase MRCK alpha (Homo sapiens) (UniProt Q5VT25); conditions: Compound concentration 1000.0 nM
[24] = molecular target: Serine/threonine-protein kinase Nek11 (Homo sapiens) (UniProt Q8NG66); conditions: Compound concentration 1000.0 nM
[25] = molecular target: Beta-1 adrenergic receptor (Homo sapiens) (UniProt P08588); conditions: Compound concentration 10.0 uM
[26] = molecular target: Mitogen-activated protein kinase 11 (Homo sapiens) (UniProt Q15759); conditions: Compound concentration 1000.0 nM
[27] = system: Hepatocyte growth factor receptor (Homo sapiens), P08581 [M1250T]; conditions: Compound concentration 1000.0 nM
[28] = molecular target: Tyrosine-protein kinase Fyn (Homo sapiens) (UniProt P06241); conditions: Compound concentration 1000.0 nM
[29] = molecular target: Rhodopsin kinase GRK1 (Homo sapiens) (UniProt Q15835); conditions: Compound concentration 1000.0 nM
[30] = molecular target: Non-receptor tyrosine-protein kinase TNK1 (Homo sapiens) (UniProt Q13470); conditions: Compound concentration 1000.0 nM
[31] = molecular target: Mitogen-activated protein kinase kinase kinase 2 (Homo sapiens) (UniProt Q9Y2U5); conditions: Compound concentration 1000.0 nM
[32] = molecular target: Protein kinase C theta type (Homo sapiens) (UniProt Q04759); conditions: Compound concentration 1000.0 nM
[33] = molecular target: Mitogen-activated protein kinase 9 (Homo sapiens) (UniProt P45984); conditions: Compound concentration 1000.0 nM
[34] = molecular target: Dual specificity protein kinase CLK3 (Homo sapiens) (UniProt P49761); conditions: Compound concentration 1000.0 nM
[35] = molecular target: Serine/threonine-protein kinase BRSK2 (Homo sapiens) (UniProt Q8IWQ3); conditions: Compound concentration 1000.0 nM
[36] = molecular target: Phosphorylase b kinase regulatory subunit alpha, liver isoform (Homo sapiens) (UniProt P46019); conditions: Compound concentration 1000.0 nM
[37] = molecular target: Serine/threonine-protein kinase 38 (Homo sapiens) (UniProt Q15208); conditions: Compound concentration 1000.0 nM
[38] = molecular target: Leukocyte tyrosine kinase receptor (Homo sapiens) (UniProt P29376); conditions: Compound concentration 1000.0 nM
Leukocyte tyrosine kinase receptor (Homo sapiens), sequence (P29376 whole entry): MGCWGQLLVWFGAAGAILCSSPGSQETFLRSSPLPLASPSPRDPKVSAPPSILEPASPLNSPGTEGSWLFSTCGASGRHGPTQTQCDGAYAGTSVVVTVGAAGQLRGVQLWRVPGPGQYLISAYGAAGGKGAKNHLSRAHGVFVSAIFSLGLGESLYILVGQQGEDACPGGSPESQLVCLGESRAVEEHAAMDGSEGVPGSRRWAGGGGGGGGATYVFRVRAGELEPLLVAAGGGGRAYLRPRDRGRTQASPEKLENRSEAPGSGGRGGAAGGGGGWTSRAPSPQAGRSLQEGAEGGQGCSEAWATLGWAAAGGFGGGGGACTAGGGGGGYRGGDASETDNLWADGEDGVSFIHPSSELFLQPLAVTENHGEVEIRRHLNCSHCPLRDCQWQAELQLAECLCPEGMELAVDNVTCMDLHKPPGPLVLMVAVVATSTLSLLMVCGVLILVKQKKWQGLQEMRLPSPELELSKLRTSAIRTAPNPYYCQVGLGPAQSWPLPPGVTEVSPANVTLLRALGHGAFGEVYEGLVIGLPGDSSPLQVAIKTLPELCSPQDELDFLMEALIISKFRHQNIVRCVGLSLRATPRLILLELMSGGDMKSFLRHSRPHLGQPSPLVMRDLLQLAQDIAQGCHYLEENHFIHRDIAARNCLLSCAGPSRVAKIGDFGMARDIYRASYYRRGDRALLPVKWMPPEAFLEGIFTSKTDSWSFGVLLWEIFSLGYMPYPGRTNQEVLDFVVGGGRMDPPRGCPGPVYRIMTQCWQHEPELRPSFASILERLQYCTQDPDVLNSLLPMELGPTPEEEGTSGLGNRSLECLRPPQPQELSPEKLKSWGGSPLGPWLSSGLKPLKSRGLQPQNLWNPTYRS

[39] = molecular target: Ephrin type-A receptor 1 (Homo sapiens) (UniProt P21709); conditions: Compound concentration 1000.0 nM
[40] = system: Tyrosine-protein kinase ABL1 (Homo sapiens), P00519 [F317I]; conditions: Compound concentration 1000.0 nM
[41] = molecular target: Platelet-derived growth factor receptor alpha (Homo sapiens) (UniProt P16234); conditions: Compound concentration 1000.0 nM
[42] = molecular target: Mitogen-activated protein kinase 3 (Homo sapiens) (UniProt P27361); conditions: Compound concentration 1000.0 nM
Mitogen-activated protein kinase 3 (Homo sapiens), sequence (P27361 whole entry): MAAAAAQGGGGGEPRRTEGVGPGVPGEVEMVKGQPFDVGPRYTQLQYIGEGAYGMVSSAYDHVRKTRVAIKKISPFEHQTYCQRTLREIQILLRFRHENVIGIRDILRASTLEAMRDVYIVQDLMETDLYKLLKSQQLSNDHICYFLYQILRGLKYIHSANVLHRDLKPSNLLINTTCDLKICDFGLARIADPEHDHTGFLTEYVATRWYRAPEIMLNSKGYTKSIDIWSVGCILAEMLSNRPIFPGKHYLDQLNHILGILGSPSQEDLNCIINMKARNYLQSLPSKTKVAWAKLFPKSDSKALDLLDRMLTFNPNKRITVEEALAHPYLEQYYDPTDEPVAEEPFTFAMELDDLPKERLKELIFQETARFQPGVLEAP

[43] = molecular target: 5-hydroxytryptamine receptor 6 (Homo sapiens) (UniProt P50406); conditions: Compound concentration 10.0 uM
[44] = molecular target: Serine/threonine-protein kinase ULK1 (Homo sapiens) (UniProt O75385); conditions: Compound concentration 1000.0 nM
[45] = molecular target: Alpha-2C adrenergic receptor (Homo sapiens) (UniProt P18825); conditions: Compound concentration 10.0 uM

Cc1cc(-n2nc(Cc3cc(F)cc(C(F)(F)F)c3)nc2C)ccc1C(N)=O [TP-024]
inactive: residual activity [1] 100% | residual activity [2] 100% | residual activity [3] 100% | residual activity [4] 93% | residual activity [5] 100% | residual activity [6] 91% | residual activity [7] 90% | residual activity [8] 100% | residual activity [9] 100% | residual activity [10] 100% | residual activity [11] 100% | residual activity [12] 96% | residual activity [13] 100% | inhibition [14] 4.48% | residual activity [15] 100% | residual activity [16] 100% | residual activity [17] 75% | residual activity [18] 100% | residual activity [19] 100% | residual activity [20] 85% | residual activity [21] 100% | residual activity [22] 81% | residual activity [23] 100% | residual activity [24] 100% | inhibition [25] 11.8% | residual activity [26] 90% | residual activity [27] 80% | residual activity [28] 100% | residual activity [29] 87% | residual activity [30] 69% | residual activity [31] 100% | residual activity [32] 100% | residual activity [33] 81% | residual activity [34] 94% | residual activity [35] 77% | residual activity [36] 100% | residual activity [37] 83% | residual activity [38] 100% | residual activity [39] 100% | residual activity [40] 100% | residual activity [41] 100% | residual activity [42] 100% | inhibition [43] 6.25% | residual activity [44] 100% | inhibition [45] 9.76%

Cc1nc(Cc2cccc(C(F)(F)F)c2)sc1-c1ccc(C(N)=O)nc1 [TP-024n]
inactive: residual activity [1] 100% | residual activity [2] 76% | residual activity [3] 100% | residual activity [4] 85% | residual activity [5] 69% | residual activity [6] 100% | residual activity [7] 82% | residual activity [8] 100% | residual activity [9] 91% | residual activity [10] 100% | residual activity [11] 100% | residual activity [12] 100% | residual activity [13] 100% | inhibition [14] -1.63% | residual activity [15] 93% | residual activity [16] 86% | residual activity [17] 60% | residual activity [18] 100% | residual activity [19] 100% | residual activity [20] 76% | residual activity [21] 100% | residual activity [22] 97% | residual activity [23] 81% | residual activity [24] 100% | inhibition [25] 7.56% | residual activity [26] 95% | residual activity [27] 92% | residual activity [28] 100% | residual activity [29] 98% | residual activity [30] 85% | residual activity [31] 100% | residual activity [32] 94% | residual activity [33] 100% | residual activity [34] 85% | residual activity [35] 72% | residual activity [36] 100% | residual activity [37] 81% | residual activity [38] 100% | residual activity [39] 81% | residual activity [40] 100% | residual activity [41] 88% | residual activity [42] 96% | inhibition [43] 2.42% | residual activity [44] 100% | inhibition [45] 8.38%
